Holding throughout (type): cell-based
Assay [1] deals with MYB mRNA. Nature of the assay: Splicing RT-qPCR assay (THP), Table 2A. Particulars: Table 2A, THP; for AC50: MYB alternative junction (AJ) mRNA, read-out: MYB AJ (AC50, increase in alternative junction mRNA); for IC50: MYB canonical junction (CJ) mRNA, read-out: MYB CJ (IC50, decrease in canonical junction mRNA). In general terms: Real-time PCR tracks product formation cycle by cycle.

Assay [2] has as its system HTT mRNA. Kind of assay: Splicing RT-qPCR assay (THP), Table 2A. Particulars: Table 2A, THP; for AC50: HTT alternative junction (AJ) mRNA, read-out: HTT AJ (AC50, increase in alternative junction mRNA); for IC50: HTT canonical junction (CJ) mRNA, read-out: HTT CJ (IC50, decrease in canonical junction mRNA).
For assay [3], the system named is SH-SY5Y (human neuroblastoma) cells. Kind of assay: Cell viability, Cell Titer Glo 2.0 assay. Particulars: read-out: Viability SHSY5Y.3 GI50. Put shortly: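 Toxicity screen in SH-SY5Y cells. Compounds were serially diluted in DMSO and then in medium, giving 0.1% DMSO final. Viability was read with CellTiter-Glo 2.0 after 72 h at 37 °C, 5% CO2, against medium-only blank wells.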

Assay [4] concerns MYB mRNA. Nature of the assay: Gene panel canonical junction qPCR assay, decrease in CJ mRNA, Table 3. Particulars: decrease in CJ mRNA levels, canonical junction qPCR, gene panel. Put shortly:
(§1)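 A673 (DMEM, 10% FBS, 15,000 cells/well) or K562 (IMDM, 10% FBS) cells treated 24 h at 37 °C with 11-point 3-fold dilutions, top 10 uM, DMSO ≤0.25%. Canonical exon-exon junction mRNA measured by RT-qPCR, normalized to GAPDH, GUSB or PPIA and DMSO (ΔΔCt); IC50 from 4-parameter logistic fit.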

The subject of assay [5] is HTT mRNA. Described as above. Particulars: decrease in CJ mRNA levels, canonical junction qPCR, gene panel. In outline:
as §1

Molecules are shown by their SMILES.

For orientation: AC50 means the midpoint of the concentration-response curve, whichever way the signal moves. Usually IC50 stands for the point on the concentration scale where inhibition reaches its midpoint. As usually defined, the GI50 is the concentration that inhibits growth by half. As to `COc1c(NC(=O)c2cc(F)c(N3CCC(NC4CC4)CC3)c3cn(C)nc23)cn2cc(C)nc2c1F` [Compound 709], the concentration at half-maximal activity (AC50) in the assay on MYB mRNA [1] lay within 100 to 1000 nM; in the assay on HTT mRNA [2], 1000 to 10000 nM. The IC50 in the assay on MYB mRNA [1] was 100 to 1000 nM; with HTT mRNA [2] it was 1000 to 10000 nM; in the assay with MYB mRNA [4], 100 to 1000 nM; with HTT mRNA [5], 1000 to 10000 nM. Moreover, the 50% growth inhibitory concentration (GI50) in assay [3] lay in the range of 1000 to 10000 nM.
As to `COc1nc2c(C(=O)Nc3cc4c(C)nc(C)cn4n3)ccc(N3C[C@H](C)N[C@@H](C)C3)c2s1` [Compound 710, 7-[(3S,5S)-3,5-dimethylpiperazin-1-yl]-N-(4,6-dimethylpyrazolo[1,5-a]pyrazin-2-yl)-2-methoxy-1,3-benzothiazole-4-carboxamide], the half-maximal activity concentration (AC50) with MYB mRNA [1] and in the assay on HTT mRNA [2] was 1000 to 10000 nM throughout. The IC50 in the assay on MYB mRNA [1], in the assay with HTT mRNA [2], with MYB mRNA [4] and in the assay on HTT mRNA [5] was 1000 to 10000 nM in each case. For the same molecule, the GI50 in assay [3] was in the range of 1000 to 10000 nM.
Take `COc1nc2c(C(=O)Nc3cn4cc(C)nc(C)c4n3)ccc(N3C[C@H](C)N[C@@H](C)C3)c2s1` [Compound 711, N-(6,8-dimethylimidazo[1,2-a]pyrazin-2-yl)-7-[(3S,5S)-3,5-dimethylpiperazin-1-yl]-2-methoxy-1,3-benzothiazole-4-carboxamide]: the concentration at half-maximal activity (AC50) was 1000 to 10000 nM with MYB mRNA [1] and more than 10000 nM in the assay on HTT mRNA [2]. Besides, the IC50 was 1000 to 10000 nM with MYB mRNA [1], more than 10000 nM in the assay with HTT mRNA [2], 1000 to 10000 nM in the assay on MYB mRNA [4] and more than 10000 nM in the assay with HTT mRNA [5]. The concentration for 50% growth inhibition (GI50) in assay [3] lay within 1000 to 10000 nM.
For the molecule `C[C@H]1CN(c2ccc(C(=O)Nc3cc(F)c4nn(C)cc4c3)c3nc(OCCO)sc23)C[C@H](C)N1` [Compound 712, 7-[(3S,5S)-3,5-dimethylpiperazin-1-yl]-N-(7-fluoro-2-methyl-indazol-5-yl)-2-(2-hydroxyethoxy)-1,3-benzothiazole-4-carboxamide], the AC50 in the assay on MYB mRNA [1] and in the assay on HTT mRNA [2] was less than 100 nM each time. Moreover, the IC50 in the assay with MYB mRNA [1], in the assay on HTT mRNA [2], in the assay with MYB mRNA [4] and in the assay with HTT mRNA [5] was less than 100 nM in each case. In addition, the concentration for 50% growth inhibition (GI50) in assay [3] was less than 100 nM.
As for `Cc1cn2cc(NC(=O)c3cc(F)c(N4CCC(NC5CC5)CC4)c4cn(C)nc34)cc(F)c2n1` [Compound 713, 4-[4-(cyclopropylamino)-1-piperidyl]-5-fluoro-N-(8-fluoro-2-methyl-imidazo[1,2-a]pyridin-6-yl)-2-methyl-indazole-7-carboxamide], the AC50 in the assay with MYB mRNA [1] is 100 to 1000 nM; with HTT mRNA [2] it was more than 10000 nM. Moreover, the half-maximal inhibitory concentration (IC50) with MYB mRNA [1] is 100 to 1000 nM; in the assay on HTT mRNA [2], more than 10000 nM; in the assay with MYB mRNA [4] it was 100 to 1000 nM; in the assay with HTT mRNA [5], more than 10000 nM. Further, the GI50 in assay [3] is 100 to 1000 nM.
Take `COc1nc2c(C(=O)Nc3ccc4nn(C)cc4n3)ccc(N3C[C@H](C)N[C@@H](C)C3)c2s1` [Compound 714, 7-[(3S,5S)-3,5-dimethylpiperazin-1-yl]-2-methoxy-N-(2-methylpyrazolo[4,3-b]pyridin-5-yl)-1,3-benzothiazole-4-carboxamide]: the half-maximal activity concentration (AC50) is less than 100 nM with MYB mRNA [1] and 100 to 1000 nM in the assay on HTT mRNA [2]. Moreover, the IC50 in the assay with MYB mRNA [1] is less than 100 nM; in the assay on HTT mRNA [2], 100 to 1000 nM; in the assay on MYB mRNA [4], less than 100 nM; in the assay on HTT mRNA [5] it was 100 to 1000 nM. Also, in assay [3], the 50% growth inhibitory concentration (GI50) is less than 100 nM.
Take `COc1nc2c(C(=O)Nc3cccc4c3cnn4C)ccc(N3C[C@H](C)N[C@@H](C)C3)c2s1` [Compound 715]: the AC50 in the assay with MYB mRNA [1] and in the assay on HTT mRNA [2] was more than 10000 nM each time. The IC50 in the assay with MYB mRNA [1], in the assay on HTT mRNA [2], in the assay with MYB mRNA [4] and in the assay with HTT mRNA [5] was more than 10000 nM each time. Further, in assay [3], the concentration for 50% growth inhibition (GI50) lay within 100 to 1000 nM.
Take `COc1nc2c(C(=O)Nc3ccc4c(c3)OCCO4)ccc(N3C[C@H](C)N[C@@H](C)C3)c2s1` [Compound 716, N-(2,3-dihydro-1,4-benzodioxin-6-yl)-7-[(3S,5S)-3,5-dimethylpiperazin-1-yl]-2-methoxy-1,3-benzothiazole-4-carboxamide]: the concentration at half-maximal activity (AC50) in the assay with MYB mRNA [1] is 1000 to 10000 nM; in the assay with HTT mRNA [2], more than 10000 nM. The half-inhibitory concentration (IC50) in the assay on MYB mRNA [1], in the assay on HTT mRNA [2], with MYB mRNA [4] and in the assay with HTT mRNA [5] was 1000 to 10000 nM in each case. In addition, in assay [3], the GI50 was 1000 to 10000 nM.
For `COc1nc2c(C(=O)Nc3cc(C)c4nn(C)cc4c3OC)ccc(N3C[C@H](C)N[C@@H](C)C3)c2s1` [Compound 717, 7-[(3S,5S)-3,5-dimethylpiperazin-1-yl]-2-methoxy-N-(4-methoxy-2,7-dimethyl-indazol-5-yl)-1,3-benzothiazole-4-carboxamide], the half-maximal activity concentration (AC50) in the assay with MYB mRNA [1] and in the assay with HTT mRNA [2] was more than 10000 nM in each case. For the same molecule, the half-maximal inhibitory concentration (IC50) in the assay with MYB mRNA [1] is more than 10000 nM; in the assay on HTT mRNA [2] it was 1000 to 10000 nM; in the assay on MYB mRNA [4], more than 10000 nM; in the assay with HTT mRNA [5] it was 1000 to 10000 nM. Further, in assay [3], the GI50 lay within 1000 to 10000 nM.
For the molecule `COc1nc2c(C(=O)Nc3cc(C)c4nn(C)cc4c3)ccc(N3C[C@H](C)N[C@@H](C)C3)c2s1` [Compound 718, N-(2,7-dimethylindazol-5-yl)-7-[(3S,5S)-3,5-dimethylpiperazin-1-yl]-2-methoxy-1,3-benzothiazole-4-carboxamide], the AC50 in the assay on MYB mRNA [1] was less than 100 nM; in the assay on HTT mRNA [2], 1000 to 10000 nM. Besides, the IC50 in the assay on MYB mRNA [1] is less than 100 nM; in the assay on HTT mRNA [2] it was 1000 to 10000 nM; in the assay on MYB mRNA [4], less than 100 nM; in the assay with HTT mRNA [5], 1000 to 10000 nM. Also, the GI50 in assay [3] was less than 100 nM.
On to `COc1nc2c(C(=O)Nc3cc(F)c4nn(C)cc4c3)ccc(N3C[C@@H](C)N[C@H](C)C3)c2s1` [Compound 719, 7-[(3R,5R)-3,5-dimethylpiperazin-1-yl]-N-(7-fluoro-2-methyl-indazol-5-yl)-2-methoxy-1,3-benzothiazole-4-carboxamide], for which the AC50 in the assay with MYB mRNA [1] was less than 100 nM; in the assay with HTT mRNA [2] it was 1000 to 10000 nM. In addition, the concentration for half-maximal inhibition (IC50) in the assay with MYB mRNA [1] was less than 100 nM; with HTT mRNA [2], 1000 to 10000 nM; in the assay on MYB mRNA [4], less than 100 nM; with HTT mRNA [5], 1000 to 10000 nM. Besides, the 50% growth inhibitory concentration (GI50) in assay [3] is 100 to 1000 nM.
On to `COc1nc2c(C(=O)Nc3cc(F)c4nn(C)cc4c3)ccc(N3C[C@@H](C)N[C@@H](C)C3)c2s1` [Compound 720], for which the AC50 in the assay on MYB mRNA [1] was less than 100 nM; with HTT mRNA [2] it was 100 to 1000 nM. Also, the IC50 with MYB mRNA [1] was less than 100 nM; with HTT mRNA [2] it was 100 to 1000 nM; in the assay with MYB mRNA [4], less than 100 nM; in the assay with HTT mRNA [5], 100 to 1000 nM. Further, in assay [3], the 50% growth inhibitory concentration (GI50) is less than 100 nM.
In the case of `Cc1cn2cc(NC(=O)c3ccc(N4CCC(NC5CC5)CC4)c4cn(C)nc34)nc2c(CC2CCOC2)n1` (centres unmarked) [Compound 722, 4-[4-(cyclopropylamino)-1-piperidyl]-2-methyl-N-[6-methyl-8-(tetrahydrofuran-3-ylmethyl)imidazo[1,2-a]pyrazin-2-yl]indazole-7-carboxamide 2,2,2-trifluoroacetate], the AC50 with MYB mRNA [1] and with HTT mRNA [2] was more than 10000 nM throughout. The concentration for half-maximal inhibition (IC50) with MYB mRNA [1], with HTT mRNA [2], in the assay on MYB mRNA [4] and in the assay on HTT mRNA [5] was more than 10000 nM each time. In assay [3], the GI50 lay within 1000 to 10000 nM.
Regarding `CCNC1CCN(c2cc(Br)c(C(=O)Nc3cn4cc(C)nc4c(F)c3OC)c3nn(C)cc23)CC1` [Compound 723], the half-maximal activity concentration (AC50) was less than 100 nM with MYB mRNA [1] and 100 to 1000 nM in the assay on HTT mRNA [2]. Also, the half-maximal inhibitory concentration (IC50) in the assay on MYB mRNA [1] was less than 100 nM; with HTT mRNA [2] it was 100 to 1000 nM; in the assay with MYB mRNA [4], less than 100 nM; in the assay on HTT mRNA [5], 100 to 1000 nM. The GI50 in assay [3] was in the range of 100 to 1000 nM.

The values above are taken from patent US20260285853A1, “COMPOUNDS AND METHODS FOR MODULATING SPLICING” (REMIX THERAPEUTICS INC., priority 2023, published 2026).
